Assay results as given in ChEMBL document CHEMBL5137065, “Recent Advances with KDM4 Inhibitors and Potential Applications” (J Med Chem, 2022).

Assays:
[1] = biological target: T1, Lysine-specific demethylase 4E (Homo sapiens, UniProt B2RXH2); assay: Inhibition of human KDM4E (1 to 378 residues) catalytic domain measured formaldehyde dehydrogenase (FDH)-coupled fluorescence assay
T1 sequence (B2RXH2 whole entry): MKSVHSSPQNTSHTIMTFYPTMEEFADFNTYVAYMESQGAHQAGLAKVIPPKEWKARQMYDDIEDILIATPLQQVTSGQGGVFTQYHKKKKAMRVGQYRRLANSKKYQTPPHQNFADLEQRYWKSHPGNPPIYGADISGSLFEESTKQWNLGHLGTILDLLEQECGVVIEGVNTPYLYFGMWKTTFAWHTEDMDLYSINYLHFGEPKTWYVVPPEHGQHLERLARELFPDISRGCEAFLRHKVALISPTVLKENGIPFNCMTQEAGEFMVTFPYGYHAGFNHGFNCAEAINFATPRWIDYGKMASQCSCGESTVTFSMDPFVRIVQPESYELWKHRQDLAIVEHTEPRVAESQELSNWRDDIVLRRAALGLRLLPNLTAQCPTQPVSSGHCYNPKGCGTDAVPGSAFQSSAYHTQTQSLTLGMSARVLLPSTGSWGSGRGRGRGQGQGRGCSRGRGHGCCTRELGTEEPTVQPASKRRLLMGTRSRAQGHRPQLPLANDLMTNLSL

[2] = biological target: T2, Lysine-specific demethylase 4A (Homo sapiens, UniProt O75164)
T2 sequence (O75164 whole entry): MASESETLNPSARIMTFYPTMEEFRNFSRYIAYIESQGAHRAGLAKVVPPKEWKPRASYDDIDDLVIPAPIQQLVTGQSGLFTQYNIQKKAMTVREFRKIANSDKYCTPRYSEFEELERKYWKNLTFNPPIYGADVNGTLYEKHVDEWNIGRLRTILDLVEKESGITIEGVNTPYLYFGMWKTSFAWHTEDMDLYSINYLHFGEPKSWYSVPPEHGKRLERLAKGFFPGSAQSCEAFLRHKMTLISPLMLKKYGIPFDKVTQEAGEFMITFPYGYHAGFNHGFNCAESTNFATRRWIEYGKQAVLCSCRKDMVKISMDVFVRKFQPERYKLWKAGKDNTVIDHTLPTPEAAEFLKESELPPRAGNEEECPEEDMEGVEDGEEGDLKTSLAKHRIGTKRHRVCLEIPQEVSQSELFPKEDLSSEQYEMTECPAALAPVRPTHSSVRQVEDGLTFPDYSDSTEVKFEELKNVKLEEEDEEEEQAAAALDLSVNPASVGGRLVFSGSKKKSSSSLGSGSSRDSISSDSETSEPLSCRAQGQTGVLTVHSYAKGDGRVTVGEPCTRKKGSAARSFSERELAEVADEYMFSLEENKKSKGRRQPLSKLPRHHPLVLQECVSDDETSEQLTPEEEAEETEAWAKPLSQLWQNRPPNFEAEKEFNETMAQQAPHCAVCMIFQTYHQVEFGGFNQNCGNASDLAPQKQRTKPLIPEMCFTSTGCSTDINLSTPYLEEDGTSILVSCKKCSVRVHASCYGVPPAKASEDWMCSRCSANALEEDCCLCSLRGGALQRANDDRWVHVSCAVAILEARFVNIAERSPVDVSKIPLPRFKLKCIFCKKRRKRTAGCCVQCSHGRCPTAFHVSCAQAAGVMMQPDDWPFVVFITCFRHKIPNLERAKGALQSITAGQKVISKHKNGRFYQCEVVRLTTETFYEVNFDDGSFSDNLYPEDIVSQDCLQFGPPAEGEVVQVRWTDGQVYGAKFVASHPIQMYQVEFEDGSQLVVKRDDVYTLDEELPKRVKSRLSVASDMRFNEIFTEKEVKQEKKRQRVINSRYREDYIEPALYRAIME

With `COC(=O)Cc1cc(O)n(-c2nc3ccccc3[nH]2)n1` the IC50 [1] was 4 µM and the IC50 [2] was 4 µM.
